Data as given in patent EP0456418B1, “Treatment of clostridium difficile diarrhoea and pseudomembranous colitis” (KABUSHIKI KAISHA MIYARISAN SEIBUTSU IGAKU KENKYUSHO, priority 1990, dated 1991).
“Also recorded” adds a separate entry of the source.

Tested on: Clostridium difficile
Test: Recurring Clostridium difficile diarrhoea model induced by CFT in golden hamsters
Assay type: in vivo
[1] = B group: six + 14 doses of VCM, 48 hours after termination of vancomycin

CN[C@H](CC(C)C)C(=O)N[C@H]1C(=O)N[C@@H](CC(N)=O)C(=O)N[C@H]2C(=O)N[C@H]3C(=O)N[C@H](C(=O)N[C@H](C(=O)O)c4cc(O)cc(O)c4-c4cc3ccc4O)[C@H](O)c3ccc(c(Cl)c3)Oc3cc2cc(c3O[C@@H]2O[C@H](CO)[C@@H](O)[C@H](O)[C@H]2O[C@H]2C[C@](C)(N)[C@H](O)[C@H](C)O2)Oc2ccc(cc2Cl)[C@H]1O [vancomycin]
faecal state compared with A group [1]: improvement in the faecal state | ratio of Clostridium difficile detection [1]: one out of five | faecal state (six doses of vancomycin): discernible improvement in the faecal state | culture of Clostridium difficile from faeces (six doses of vancomycin (3 days administration), detection limit 400CFu/g faeces): not so effective as to show negative culture; also recorded: positive culture | culture of Clostridium difficile (vancomycin continued for a total of 10 days): negative culture
